Measured values as given in PubChem BioAssay AID1963842 (Molecular Pharmacology Branch, DTP, NCI, 2024).

System: 677734-321-R-J1-PDC complex spheroid viability
Experiment: Anticancer human tumor 677734-321-R-J1-PDC patient-derived soft tissue sarcoma cell line growth inhibition [POLQ]
Details: for IC50: curve of first compound; for viability, T/C: stronger effect = lower value
Summary of the method: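 Growth inhibition in 3D: complex spheroids (tumor PDC, HUVEC, MSC) treated with POLQ inhibitor combinations; where Cmax unknown, highest tested concentration 10 microM, except SN-38 at 1 microM.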

[1] = second compound 0.0316 µM, first compound 0.0316 µM
[2] = second compound 0.0316 µM, first compound 0.1 µM
[3] = second compound 0.0316 µM, first compound 0.316 µM
[4] = second compound 0.0316 µM, first compound 1 µM
[5] = second compound 0.0316 µM, first compound 3.16 µM
[6] = second compound 0.0316 µM, first compound 10 µM
[7] = second compound 0.1 µM, first compound 0.0316 µM
[8] = second compound 0.1 µM, first compound 0.1 µM
[9] = second compound 0.1 µM, first compound 0.316 µM
[10] = second compound 0.1 µM, first compound 1 µM
[11] = second compound 0.1 µM, first compound 3.16 µM
[12] = second compound 0.1 µM, first compound 10 µM
[13] = second compound 0.316 µM, first compound 0.0316 µM
[14] = second compound 0.316 µM, first compound 0.1 µM
[15] = second compound 0.316 µM, first compound 0.316 µM
[16] = second compound 0.316 µM, first compound 1 µM
[17] = second compound 0.316 µM, first compound 3.16 µM
[18] = second compound 0.316 µM, first compound 10 µM
[19] = second compound 1 µM, first compound 0.0316 µM
[20] = second compound 1 µM, first compound 0.1 µM
[21] = second compound 1 µM, first compound 0.316 µM
[22] = second compound 1 µM, first compound 1 µM
[23] = second compound 1 µM, first compound 3.16 µM
[24] = second compound 1 µM, first compound 10 µM
[25] = second compound 3.16 µM, first compound 0.0316 µM
[26] = second compound 3.16 µM, first compound 0.1 µM
[27] = second compound 3.16 µM, first compound 0.316 µM
[28] = second compound 3.16 µM, first compound 1 µM
[29] = second compound 3.16 µM, first compound 3.16 µM
[30] = second compound 3.16 µM, first compound 10 µM
[31] = second compound 10 µM, first compound 0.0316 µM
[32] = second compound 10 µM, first compound 0.1 µM
[33] = second compound 10 µM, first compound 0.316 µM
[34] = second compound 10 µM, first compound 1 µM
[35] = second compound 10 µM, first compound 3.16 µM
[36] = second compound 10 µM, first compound 10 µM
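Also: spheroids exposed to compounds for one week.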
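For viability, T/C in this document: 100% = vehicle DMSO treated spheroids.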

## Nc1ccn(C2OC(CO)C(O)C2(F)F)c(=O)n1 (stereo not drawn) + COC1C(OC(N)=O)C(O)C(Oc2ccc3c(O)c(NC(=O)c4ccc(O)c(CC=C(C)C)c4)c(=O)oc3c2C)OC1(C)C
Second compound 0.0316 µM
  IC50: < 0.0316 µM
Second compound 0.1 µM
  IC50: < 0.0316 µM
Second compound 0.316 µM
  IC50: < 0.0316 µM
Second compound 1 µM
  IC50: < 0.0316 µM
Second compound 3.16 µM
  IC50: < 0.0316 µM
Second compound 10 µM
  IC50: < 0.0316 µM
[1]
  viability, T/C: 32.5%
[2]
  viability, T/C: 15.3%
[3]
  viability, T/C: 13.9%
[4]
  viability, T/C: 11.8%
[5]
  viability, T/C: 10.9%
[6]
  viability, T/C: 8.72%
[7]
  viability, T/C: 38.9%
[8]
  viability, T/C: 17.6%
[9]
  viability, T/C: 14%
[10]
  viability, T/C: 12.8%
[11]
  viability, T/C: 8.3%
[12]
  viability, T/C: 9.61%
[13]
  viability, T/C: 30.9%
[14]
  viability, T/C: 16.8%
[15]
  viability, T/C: 15.9%
[16]
  viability, T/C: 13.1%
[17]
  viability, T/C: 12.1%
[18]
  viability, T/C: 8.63%
[19]
  viability, T/C: 30.2%
[20]
  viability, T/C: 17.2%
[21]
  viability, T/C: 11.1%
[22]
  viability, T/C: 14.3%
[23]
  viability, T/C: 11.7%
[24]
  viability, T/C: 7.96%
[25]
  viability, T/C: 30.1%
[26]
  viability, T/C: 16.6%
[27]
  viability, T/C: 12.9%
[28]
  viability, T/C: 14.5%
[29]
  viability, T/C: 11.4%
[30]
  viability, T/C: 8.33%
[31]
  viability, T/C: 39.1%
[32]
  viability, T/C: 12.8%
[33]
  viability, T/C: 12.1%
[34]
  viability, T/C: 13.1%
[35]
  viability, T/C: 11.1%
[36]
  viability, T/C: 11%

## C=CC(=O)N1CCN(c2nc(=O)n(-c3c(C)ccnc3C(C)C)c3nc(-c4c(O)cccc4F)c(F)cc23)C(C)C1 (stereo not drawn) + COC1C(OC(N)=O)C(O)C(Oc2ccc3c(O)c(NC(=O)c4ccc(O)c(CC=C(C)C)c4)c(=O)oc3c2C)OC1(C)C
Second compound 0.0316 µM
  IC50: > 10 µM
Second compound 0.1 µM
  IC50: > 10 µM
Second compound 0.316 µM
  IC50: > 10 µM
Second compound 1 µM
  IC50: > 10 µM
Second compound 3.16 µM
  IC50: > 10 µM
Second compound 10 µM
  IC50: > 10 µM
[1]
  viability, T/C: 109%
[2]
  viability, T/C: 92.4%
[3]
  viability, T/C: 102%
[4]
  viability, T/C: 97.1%
[5]
  viability, T/C: 104%
[6]
  viability, T/C: 86.4%
[7]
  viability, T/C: 102%
[8]
  viability, T/C: 104%
[9]
  viability, T/C: 103%
[10]
  viability, T/C: 102%
[11]
  viability, T/C: 99.9%
[12]
  viability, T/C: 81.7%
[13]
  viability, T/C: 102%
[14]
  viability, T/C: 97.3%
[15]
  viability, T/C: 106%
[16]
  viability, T/C: 101%
[17]
  viability, T/C: 107%
[18]
  viability, T/C: 84.8%
[19]
  viability, T/C: 98.4%
[20]
  viability, T/C: 99.3%
[21]
  viability, T/C: 104%
[22]
  viability, T/C: 113%
[23]
  viability, T/C: 105%
[24]
  viability, T/C: 89.2%
[25]
  viability, T/C: 102%
[26]
  viability, T/C: 101%
[27]
  viability, T/C: 105%
[28]
  viability, T/C: 106%
[29]
  viability, T/C: 106%
[30]
  viability, T/C: 80.7%
[31]
  viability, T/C: 107%
[32]
  viability, T/C: 103%
[33]
  viability, T/C: 96%
[34]
  viability, T/C: 106%
[35]
  viability, T/C: 95.8%
[36]
  viability, T/C: 86.7%

## CCCS(=O)(=O)Nc1ccc(F)c(C(=O)c2c[nH]c3ncc(-c4ccc(Cl)cc4)cc23)c1F + COC1C(OC(N)=O)C(O)C(Oc2ccc3c(O)c(NC(=O)c4ccc(O)c(CC=C(C)C)c4)c(=O)oc3c2C)OC1(C)C
Second compound 0.0316 µM
  IC50: 6.53 µM
Second compound 0.1 µM
  IC50: 6.39 µM
Second compound 0.316 µM
  IC50: 6.59 µM
Second compound 1 µM
  IC50: 6.51 µM
Second compound 3.16 µM
  IC50: 6.73 µM
Second compound 10 µM
  IC50: 6.49 µM
[1]
  viability, T/C: 103%
[2]
  viability, T/C: 109%
[3]
  viability, T/C: 101%
[4]
  viability, T/C: 118%
[5]
  viability, T/C: 106%
[6]
  viability, T/C: 16.7%
[7]
  viability, T/C: 108%
[8]
  viability, T/C: 107%
[9]
  viability, T/C: 104%
[10]
  viability, T/C: 120%
[11]
  viability, T/C: 104%
[12]
  viability, T/C: 15.3%
[13]
  viability, T/C: 105%
[14]
  viability, T/C: 110%
[15]
  viability, T/C: 109%
[16]
  viability, T/C: 110%
[17]
  viability, T/C: 109%
[18]
  viability, T/C: 16.6%
[19]
  viability, T/C: 103%
[20]
  viability, T/C: 107%
[21]
  viability, T/C: 101%
[22]
  viability, T/C: 112%
[23]
  viability, T/C: 109%
[24]
  viability, T/C: 16.5%
[25]
  viability, T/C: 106%
[26]
  viability, T/C: 101%
[27]
  viability, T/C: 111%
[28]
  viability, T/C: 112%
[29]
  viability, T/C: 112%
[30]
  viability, T/C: 19.3%
[31]
  viability, T/C: 107%
[32]
  viability, T/C: 104%
[33]
  viability, T/C: 109%
[34]
  viability, T/C: 105%
[35]
  viability, T/C: 105%
[36]
  viability, T/C: 17.2%

## O=C(Nc1ccc(O)c(NS(=O)(=O)c2ccc(F)cc2)c1)c1ccc(-c2ccccc2)cc1 + COC1C(OC(N)=O)C(O)C(Oc2ccc3c(O)c(NC(=O)c4ccc(O)c(CC=C(C)C)c4)c(=O)oc3c2C)OC1(C)C
Second compound 0.0316 µM
  IC50: 7.22 µM
Second compound 0.1 µM
  IC50: 7.58 µM
Second compound 0.316 µM
  IC50: 8.78 µM
Second compound 1 µM
  IC50: 7.48 µM
Second compound 3.16 µM
  IC50: 8.18 µM
Second compound 10 µM
  IC50: 6.87 µM
[1]
  viability, T/C: 112%
[2]
  viability, T/C: 100%
[3]
  viability, T/C: 102%
[4]
  viability, T/C: 101%
[5]
  viability, T/C: 85.9%
[6]
  viability, T/C: 35.6%
[7]
  viability, T/C: 104%
[8]
  viability, T/C: 106%
[9]
  viability, T/C: 99.2%
[10]
  viability, T/C: 101%
[11]
  viability, T/C: 101%
[12]
  viability, T/C: 33.8%
[13]
  viability, T/C: 111%
[14]
  viability, T/C: 99.9%
[15]
  viability, T/C: 104%
[16]
  viability, T/C: 106%
[17]
  viability, T/C: 97.9%
[18]
  viability, T/C: 43.8%
[19]
  viability, T/C: 108%
[20]
  viability, T/C: 109%
[21]
  viability, T/C: 110%
[22]
  viability, T/C: 101%
[23]
  viability, T/C: 92.1%
[24]
  viability, T/C: 35.8%
[25]
  viability, T/C: 109%
[26]
  viability, T/C: 101%
[27]
  viability, T/C: 108%
[28]
  viability, T/C: 103%
[29]
  viability, T/C: 84.9%
[30]
  viability, T/C: 42.7%
[31]
  viability, T/C: 103%
[32]
  viability, T/C: 108%
[33]
  viability, T/C: 102%
[34]
  viability, T/C: 100%
[35]
  viability, T/C: 81.7%
[36]
  viability, T/C: 34.6%
